Assay results published in paper PMC9765455 (Science Translational Medicine, 2022).
Where two headings read alike, the source gives them in different places.

How the values were obtained:
COVID-19 = settings: cited from earlier work
host DNA = test system: host DNA; parameters: method as in PMID 33961695; settings: cell-based assays; cited from earlier work
SARS-CoV-2 Delta = test: CPE-based cell viability assay (MTT); settings: read-out: EC50 against SARS-CoV-2 Delta
P-glycoprotein (P-gp) [1] = settings: cited from earlier work
MERS-CoV = settings: cited from earlier work
P-glycoprotein (P-gp) [2] = test: P-gp substrate assessment; settings: inferred from CP-100356 enhancement in Vero-TMPRSS2
SARS-CoV-2 Omicron BA.1 = test system: SARS-CoV-2 Omicron BA.1; parameters: species or system Syrian hamsters; settings: hamster, in vivo, 200 mg/kg
[3] = test system: SARS-CoV-2 Omicron BA.2.75; parameters: species or system Syrian hamsters; settings: hamster, in vivo, 200 mg/kg
[4] = Pharmacokinetics after single oral administration
[5] = test system: SARS-CoV-2 Alpha (lineage B.1.1.7); parameters: species or system Syrian hamsters; settings: hamster, in vivo, 200 mg/kg
SARS-CoV-2 Omicron BA.2 = test system: SARS-CoV-2 Omicron BA.2; parameters: species or system Syrian hamsters; settings: hamster, in vivo, 200 mg/kg
[6] = healthy adults, phase 1 trial; cited from earlier work
SARS-CoV-2 Omicron BA.5 = test system: SARS-CoV-2 Omicron BA.5; parameters: species or system Syrian hamsters; settings: hamster, in vivo, 200 mg/kg
[7] = male, Syrian, hamster, in vivo
[8] = test system: SARS-CoV-2 Gamma (lineage P.1); parameters: species or system Syrian hamsters; settings: hamster, in vivo, 200 mg/kg
SARS-CoV-2 VOCs = test: CPE-based MTT assay against SARS-CoV-2 VOCs in 293T-hACE2-TMPRSS2 cells (fig. S4); format: cell-based; settings: 293T-hACE2-TMPRSS2, fig. S4
Method: Antiviral compounds and antibodies were serially diluted 2-fold increments by culture medium containing 2% FBS and plated on 96-well microplates. The diluted compounds in the plates were mixed with SARS-CoV-2 and cell suspensions. The diluted antibodies were initially incubated with SARS-CoV-2 for 30 minutes and then added to the cell suspension. Cells in the plates were cultured for 2 to 3 days, and then exposed to MTT (3-[4,5-dimethyl-2-thiazolyl]-2,5-diphenyl-2H-tetrazolium bromide) (Nacalai Tesque). Cell viability was determined by measurement of absorbance at 560 nm and 690 nm. EC50 values were defined in GraphPad Prism version 8.4.3 (GraphPad Software) with a variable slope (four parameters).
Cytopathic effect (CPE) in 293T-hACE2-TMPRSS2 cells induced by SARS-CoV-2 infection was measured at 3 dpi by 3-[4,5-dimethyl-2-thiazolyl]-2,5-diphenyl-2H-tetrazolium bromide (MTT) […]
assay. […] Uninfected cells
(1 picture or pasted object on this page, not shown here)

SARS-CoV = settings: cited from earlier work
[9] = test system: Calu-3 cells, Vero-TMPRSS2 cells, primary human bronchial epithelial cells; test: Compound cytotoxicity assay (CellTiter-Glo / LDH-Glo); format: cell-based; settings: at the examined concentrations, 3 days
HCoV-OC43 = settings: cited from earlier work
[10] = Severe acute respiratory syndrome coronavirus 2, 293 T-hACE2-TMPRSS2
[11] = Severe acute respiratory syndrome coronavirus 2, Vero/TMPRSS2, Vero-TMPRSS2
[12] = Severe acute respiratory syndrome coronavirus 2, Vero/TMPRSS2, Vero-TMPRSS2 with CP-100356

CC(C)C(=O)OC[C@H]1O[C@@H](n2ccc(NO)nc2=O)[C@H](O)[C@@H]1O [Molnupiravir, reference compound]
decrease of the risk of hospitalization for COVID-19 (COVID-19; clinical trial): 30% | mutagenesis (host DNA): mutagenesis not only for viral RNA but also for host DNA | EC50 (SARS-CoV-2 Delta; [10]): 3680 ± 1090 nM | EC50 (SARS-CoV-2 Delta; [11]): 3170 ± 217 nM | EC50 (SARS-CoV-2 Delta; [12]): 2280 ± 118 nM

O=c1nc(NO)ccn1[C@@H]1O[C@H](CO)[C@@H](O)[C@H]1O [NHC, N-hydroxycytidine]
EC50 (SARS-CoV-2 Delta; [10]): 538 ± 142 nM | EC50 (SARS-CoV-2 Delta; [11]): 360 ± 49.4 nM | EC50 (SARS-CoV-2 Delta; [12]): 677 ± 8.89 nM

CC(C)(C)[C@H](NC(=O)C(F)(F)F)C(=O)N1C[C@H]2[C@@H]([C@H]1C(=O)N[C@H](C#N)C[C@@H]1CCNC1=O)C2(C)C [Nirmatrelvir]
substrate of P-gp (P-glycoprotein (P-gp) [1]): major substrates | reduction in the risk of hospitalization or death (COVID-19): 88% | EC50 (SARS-CoV-2 Delta; [10]): 37 ± 5.3 nM | EC50 (SARS-CoV-2 Delta; [11]): > 1000 nM | EC50 (SARS-CoV-2 Delta; [12]): 132 ± 32 nM

CCC(CC)COC(=O)[C@H](C)N[P@](=O)(OC[C@H]1O[C@@](C#N)(c2ccc3c(N)ncnn23)[C@H](O)[C@@H]1O)Oc1ccccc1 [Remdesivir]
substrate of P-gp (P-glycoprotein (P-gp) [1]): major substrates | EC50 (SARS-CoV-2 Delta; [10]): < 3.9 nM | EC50 (SARS-CoV-2 Delta; [11]): > 500 nM | EC50 (SARS-CoV-2 Delta; [12]): 32 ± 4.52 nM

Cn1cnc(Cn2c(=O)[nH]/c(=N\c3cc4cn(C)nc4cc3Cl)n(Cc3cc(F)c(F)cc3F)c2=O)n1 [S-217622]
EC50 (MERS-CoV): 1400 nM | substrate of P-gp (P-glycoprotein (P-gp) [2]): substrate of P-gp | Fig. 3A: Viral RNA (SARS-CoV-2 Omicron BA.1): n.d.(=1) | Fig. 3B: Virus titer (SARS-CoV-2 Omicron BA.1): n.d.(=100) | Fig. 3A: Viral RNA [3]: n.d.(=1) | Fig. 3B: Virus titer [3]: n.d.(=100) | Cmax and AUC dose proportionality ([4]; 10 to 100 mg/kg): increased more than the dose ratio | bioavailability ([4]; hamsters, plasma): excellent bioavailability | half-life ([4]; male, Syrian, hamster, plasma, po, 100 mg/kg): 3.43 to 4.46 h | Fig. 3B: Virus titer [5]: n.d.(=100) | Fig. 3B: Virus titer (SARS-CoV-2 Omicron BA.2): n.d.(=100) | bioavailability and tolerability [6]: favorable bioavailability and tolerability | Fig. 3B: Virus titer (SARS-CoV-2 Omicron BA.5): n.d.(=100) | time at which plasma concentration reached the maximum [7]: 0.5 to 2.67 h | Fig. 3B: Virus titer [8]: n.d.(=100) | antiviral activity against VOCs (SARS-CoV-2 VOCs): exhibited antiviral activity against all VOCs | EC50 (SARS-CoV): 210 nM | cytotoxicity [9]: No cytotoxicity was observed | EC50 (SARS-CoV-2 Delta; [10]): 26 ± 6.65 nM | EC50 (SARS-CoV-2 Delta; [11]): 407 ± 21.3 nM | EC50 (SARS-CoV-2 Delta; [12]): 69 ± 11.2 nM | EC90 (HCoV-OC43): 74 nM
